How the values were obtained:
[1] = Encapsulation efficiency in sodium alginate microcapsules (plaque assay); assay type: physicochemical; set-up: Pre-encapsulation phage concentration / Concentration of phages in microcapsules: unit not given here; details: for Pre-encapsulation phage concentration: before encapsulation; for Pre-encapsulation phage concentration / Concentration of phages in microcapsules: plaque assay; for Encapsulation efficiency: encapsulated / pre-encapsulation phage concentration; for Concentration of phages in microcapsules: sodium alginate microcapsules dissolved
Description: Bacteriophages were microencapsulated within sodium alginate microcapsules as well-known in the art with some modifications (Krasaekoopt et al., 2004, International Dairy Journal, 14 (8), 737-743). In short, sodium alginate (4 g) was mixed with 400 mL of a bacteriophage filtrate to make a 1% (w/v) suspension. This suspension was allowed to gel at room temperature for 4 hours and was then processed through a Buchi Encapsulator-B395 set at 200 Hz (frequency) and 1000V (electrode) with an aperture of 0.3 mm. The resulting microcapsules were collected in a beaker containing a hardening solution (100 mM CaCl2)) with continuous stirring to avoid clumping of microcapsules. Microcapsules were allowed to sit in the 100 mM CaCl2) solution to harden for 30 minutes and were then washed three times with SM buffer. Washed microcapsules were stored in SM buffer in 50 ml conical tubes at 4° C. until further use. Each of the six phage types was individually microencapsulated in this manner.
To assess the efficiency of microencapsulation, the concentrations of microencapsulated phages were compared to pre-encapsulation concentrations as well-known in the art (Yongsheng et al., 2008, Applied and Environmental Microbiology, 74 (15), 4799). To determine bacteriophage concentrations in microcapsules, microcapsules (0.5 g) were dried by contact with filter paper and then dissolved in 4.5 mL of dissolving solution (50 mM sodium citrate, 0.2M sodium bicarbonate, and 50 mM Tris-HCl; pH 7.5). Bacteriophage concentrations were then quantified by standard plaque assay as described previously. Encapsulation efficiency (EE %) was calculated as:
EE %=encapsulated phage concentration/pre-encapsulation phage concentration

[2] = Phage release from microcapsules in SIF after SGF; assay type: physicochemical; details: encapsulated phage; for phages released from their microcapsules: 1 hour SGF then 1 hour in SIF; for concentration of released phages: 1 hour SGF then 1 hour of incubation in SIF
Description: The extent to which phages were released from microcapsules in the intestinal environment was investigated by incubating encapsulated phages first in SGF and then in SIF. 0.5 g of microencapsulated phages (microcapsules) was added to 4.5 mL SGF in duplicate tube sets and incubated at 41° C. for 1 hour with shaking. SGF was then carefully removed via pipetting and microcapsules were combined with either 4.5 mL of SIF or 4.5 mL 1×PBS and incubated at 41° C. with shaking. Aliquots (100 μL) were collected from each sample at 1, 2, and 3 hours following exposure to SIF. The concentrations of released phages in these aliquots were determined using standard plaque assays with phages' respective host APEC serotypes. The experiment was conducted in triplicate with each phage type.

ten APEC strains = test: Host range (lytic spectrum) over all ten APEC strains, spot assays; assay type: cell-based, Escherichia coli; details: for number of different APEC strains lysed: of ten APEC strains; for degree of lysis against the APEC strains lysed: over the strains that the phage lyses, scale 0-3
Description: The host range of each bacteriophage type was determined by performing spot assays using each of the ten distinct APEC serotypes mentioned above. Spot assays were performed as known in the art (Barrow et al., 1998, Clinical and Diagnostic Laboratory Immunology, 5 (3), 294-298). 100 μL aliquots of log-phase bacterial cultures were combined with 67.5 μL 1M CaCl2) and 4 mL LB overlay, mixed briefly, and poured over LB agar plates. Once the overlay had solidified, 5 μL aliquots of individual phage types were applied (i.e., spotted) onto the plates, and plates were incubated at 37° C. overnight. Plates were assessed for clearings the following day and the degree of lysis was measured using a four-point scale in which 0 indicated no lysis, 1.0 indicated some lysis, 2.0 indicated moderate lysis, and 3 indicated complete lysis. Spot assays were conducted in triplicate for each phage and APEC strain.

host APEC E. coli O6:H31 = test: Lytic capacity of individual phages in liquid media (OD600); assay type: cell-based, Escherichia coli; details: for OD600 reading of phage-treated APEC culture: after 1 hour of incubation, MOI 10, 37° C., untreated AHP host OD600=0.497; for concentration of APEC (OD600) versus untreated APEC cultures: 2, 3, and 4 hours post-treatment
Description: (§1) Individual APEC strains (100 μL) were inoculated into 15 mL LB media in separate tubes (two tubes per strain) and incubated at 37° C. in a shaking incubator. Once the bacterial cultures reached an OD600 0.18-0.22, the individual bacteriophage types (MOI=10) were added to one tube from the pair of tubes inoculated with their respective host APEC strain. The other tubes of bacterial culture were left untreated and served as negative controls. Bacterial growth was assessed by measuring absorbance (OD600) in all tubes every hour for 4 hours. The experiment was repeated three times.
(§2) The six APEC strains were individually inoculated into LB broth and incubated at 37° C. until they reached log-phase growth. Phages were added to the log-phase culture of their APEC host at an MOI of 10, and subsequent bacterial concentrations were determined by measuring the absorbance (OD600) of the culture at 1, 2, 3, and 4 hours post-phage application. One flask containing only bacterial culture was included as a negative control. Additional flasks containing both bacterial cultures and antibiotics (specifically, gentamycin sulfate, kanamycin sulfate, nalidixic acid, or chloramphenicol) at their respective minimum inhibitory concentrations (National Antibiotic Resistance Monitoring System (NARMS) 2019, antibiotics tested by NARMS) were included as positive controls. These lytic capacity experiments were conducted in triplicate for each of the phage types and their respective host APEC strains.

host APEC E. coli O2:H4 = test: as above; assay type: cell-based, Escherichia coli; details: for OD600 reading of phage-treated APEC culture: after 1 hour of incubation, MOI 10, 37° C., untreated host OD600=0.454
Description: as §1, §2

[3] = Phage stability in simulated intestinal fluid (SIF); assay type: physicochemical; details: unencapsulated phage, SIF pH 7, 41° C., 1, 2, and 3 hours
Description: To assess phage stability in intestinal fluids, 0.5 mL of unencapsulated phages were added to 4.5 mL of simulated intestinal fluid (SIF; 0.1% (w/v) bile salt and 0.4% (w/v) pancreatin in 50 mM KH2PO4; pH 7) and incubated at 41° C. As a negative control, 0.5 mL of unencapsulated phages were added to 4.5 mL of 1×PBS and incubated at 41° C. Aliquots (100 μL) were collected from each sample after 1, 2, and 3 hours of exposure to SIF. These aliquots were serially diluted and phage concentrations were measured by standard plaque assay as described above. The experiment was conducted in triplicate for each phage type. Concentrations of viable phages after exposure to SIF or PBS at a given time point were then compared.

[4] = 1, 2, 3, and 4 hours post-treatment, MOI 10, P<0.05

Row | Substance | Pre-encapsulation phage concentration [1] | Encapsulation efficiency [1] | Concentration of phages in microcapsules [1] | phages released from their microcapsules [2] | concentration of released phages [2] | number of different APEC strains lysed (ten APEC strains) | degree of lysis against the APEC strains lysed (ten APEC strains) | concentration of APEC host versus APEC cultures incubated without phages (host APEC E. coli O6:H31; [4]) | OD600 reading of phage-treated APEC culture (host APEC E. coli O6:H31) | concentration of APEC (OD600) versus untreated APEC cultures (host APEC E. coli O6:H31; MOI 10, P<0.05) | OD600 reading of phage-treated APEC culture (host APEC E. coli O2:H4) | phage concentration SIF-exposed versus PBS-exposed [3] | concentration of APEC host versus APEC cultures incubated without phages (host APEC E. coli O2:H4; [4])
1 | Escherichia phage vB_Eco_AHP | 9.6 ± 0.1 | 97.9% | 9.4 ± 0.1 | 97.4% | 9.14 log10 PFU/mL | four and at least two | 2.7-3.0 | significantly lower | 0.284 |  |  |  | 
2 | Escherichia phage vB_Eco_MIA | 8.9 ± 0.1 | 95.5% | 8.5 ± 0.1 | 94.7% | 8.05 log10 PFU/mL | six and at least two |  |  | did not significantly differ | Significantly lower |  |  | 
3 | Escherichia phage vB_Eco_MP_1 [MP1] | 9.3 ± 0.2 | 98.9% | 9.2 ± 0.2 | 96.5% | 8.94 log10 PFU/mL | two and at least two | 2.7 |  |  |  | 0.101 | significantly lower | 
4 | Escherichia phage vB_Eco_MP_2 [MP2] | 9.4 ± 0.1 | 98.9% | 9.3 ± 0.2 | 95.4% | 8.88 log10 PFU/mL | two and at least two | 3.0 |  |  |  | 0.328 |  | significantly lower
5 | Escherichia phage vB_Eco_AHC | 8.9 ± 0.1 | 94.4% | 8.4 ± 0.2 | 95.8% | 7.99 log10 PFU/mL | six and at least two |  |  | did not significantly differ | Significantly lower |  |  | 
6 | Escherichia phage vB_Eco_AKA | 8.6 ± 0.2 | 98.8% | 8.5 ± 0.1 | 94.4% | 7.99 log10 PFU/mL | six and at least two |  |  | did not significantly differ | Significantly lower |  |  | 

From US20250041367A1, “BACTERIOPHAGES AND USE THEREOF FOR THE TREATMENT OR PREVENTION OF INFECTION CAUSED BY E. COLI” (Purdue Research Foundation, priority 2023, published 2025)
